Data on 1 compound can be found in US6303596A, “Use of taurolidine for treatment of leukemias” (priority 2000, dated 2001).

Molecules are shown by their SMILES.

Data set [1] concerns ECV304. Kind of data set: subcellular-sized events by flow cytometry, ECV304. It is filed as cell-based, human. Conditions: ECV304, after taurolidine treatment. The procedure:
Less than 0.1% of ECV304 or GM5387 cells were TUNEL-positive 6 hours after treatment with taurolidine or anisomycin (Table VIII). Therefore, neither of these agents induce rapid DNA fragmentation in these cell types. However, there was approximately a 70% increase in the number of subcellular-sized events recorded by flow cytometry after taurolidine treatment of these cells, indicating some effect of taurolidine on cell integrity. These cell fragments were not stained by propidium iodide, consistent with them being apoptotic bodies.

The subject of data set [2] is Monocytes. Conditions: 24-hour taurolidine treatment; cited from earlier work.
Data set [3] relates to leukemia-derived cell lines. Kind of data set: trypan blue exclusion, cell lines taken together. The class given is cell-based, human. The procedure: In these experiments, integrity of cell membranes following taurolidine treatment was assessed by exclusion of trypan blue and by measuring the release of LDH in MM6, K-562, HL-60, and REH cells. Since BCS contains significant amounts of LDH, these experiments were conducted on cells cultured in AIM-V+0.01% BCS. Four hour treatment of cells was conducted in AIM-V containing 0.01% BCS in order to allow subsequent LDH assay without interference from BCS (which occurs in when normal culture medium, containing 10% BCS, is used). Thus, MM6 cells (5×10^5 cells/ml) were treated with taurolidine for four hours in AIM-V+0.01% BCS, after which an aliquot of the cell suspension was removed for measurement of LDH release. A parallel aliquot of cells was lysed by three cycles of freeze/thaw and the quantity of LDH released was taken to be 100%. Remaining cells were rinsed in HBSS and resuspended in growth medium for measurement of growth rates.
HL-60 cells treated with 50 μl taurolidine. In these samples, LDH present in the culture medium was 8.3±2.3% of that released by completely lysed cells, compared with 2.3±0.8% measured in control cultures. […] After 4 hour treatment, cells were rinsed and returned to growth medium and monitored for viability and growth over the following 3 days. […]

For data set [4], the system named is ECV304. In words: TUNEL / propidium iodide flow cytometry, ECV304. The class given is cell-based, human. The conditions noted are these: ECV304, 6 hours after treatment. The procedure: In the second method, DNA fragmentation was detected via TUNEL assay according to the manufacturer's instructions. With this methodology, 2×10^6 cells were fixed with 2% paraformaldehyde, permeabilized with 0.1% Triton X-100/0.1% citrate, incubated at 37° C. with terminal deoxynucleotidyl transferase and FITC-dUTP, rinsed and analyzed by flow cytometry. Enhanced FITC signal indicates apoptosis-specific DNA fragmentation. Gavriali, et al, "Identification of programmed cell death in situ via specific labeling of nuclear DNA fragmentation," J Cell Biol 119:493 (1992). Parallel aliquots of unfixed cells were treated with PI and FITC-conjugated anti-CD14 and analyzed by flow cytometry, in order to identify cells with permeable cell membranes (since PI binds to DNA but is excluded from cells with intact plasma membranes) and also to determine the cell-specificity of the apoptotic signal.
In another study, TUNEL assays were performed on all cell lines 6 hours after cells were initially exposed to taurolidine (cells were treated for 4 hours, rinsed, and then incubated for 2 more hours before TUNEL assay was performed).
. Taurolidine and anisomycin induced apoptosis in MM6, HL-60, and Jurkat cells (Table VIII). MM6 and HL-60 cells were similarly effected, with >80% TUNEL-positive cells after 6 hours. […]
Data are percent of total cell-size events, and are expressed as mean ± […]
On the technique in general: In flow cytometry, cells or beads pass a laser one at a time.

Data set [5] has as its system MM6 cells. In words: growth rate after taurolidine treatment, MM6. The class given is cell-based, human. The procedure: FIG. 4A and FIG. 4B are graphs depicting cell viability and growth rates following taurolidine treatment as determined by assay procedures. MM6 cells were treated with taurolidine as described in FIG. 3. After aliquots were collected for the lactate dehydrogenase (LDH) assay, the remainder of the culture was rinsed in Hank's balanced salt solution (HBSS) and resuspended in RPMI+10% BCS without taurolidine. Counts of trypan blue-negative cells represented in FIG. 4A and total cell number represented in FIG. 4B were recorded daily thereafter (with the measurement at Day 1 being made immediately after the four hour taurolidine treatment). […]
FIGS. 5A and 5B depict cell viability and growth rates for MM6 cell line following taurolidine treatment, in terms of % trypan blue negative cells and % cell number, respectively. […] Counts of trypan blue-negative cells (FIG. 5A), and total cell number (FIG. 5B), were recorded daily thereafter (with the measurement at Day 1 being made immediately after the 4 hour taurolidine treatment). […] Doubling times were determined under each condition, and expressed as a percentage of the rate of doubling of untreated cells. […]
In these experiments, integrity of cell membranes following taurolidine treatment was assessed by exclusion of trypan blue and by measuring the release of LDH in MM6, K-562, HL-60, and REH cells. […]

Regarding `O=S1(=O)CCN(CN2CCS(=O)(=O)NC2)CN1` [taurolidine, 4,4'-methylenebis(perhydro-1,2,4-thiadiazin 1,1-dioxide)], in data set [1], the “increase in the number of subcellular-sized events” value is on record as ~70%. In data set [2], the “LDH release by monocytes” value was “no increase in LDH release”. In addition, in data set [3] (all samples, 25 to 100 μg/ml taurolidine, after 4 h treatment), the “trypan blue assay on Day 1” value is on record as “equivalent to control”. The “progressive permeability to trypan blue over following days” value in data set [3] (leukemia-derived cell lines except K562, taurolidine 50 μg/ml or greater) is “permeability to trypan blue”. Further, the “DNA fragmentation (TUNEL positivity)” value in data set [4] is reported as “did not demonstrate evidence for fragmentation of DNA”. Moreover, in data set [5] (MM6, 25 μg/ml taurolidine for 4 h), the “growth rate after return to growth medium” value is recorded as “growth rates similar to that observed with untreated cells”. In addition, the “growth after return to growth medium” value in data set [5] (MM6, 50 μg/ml taurolidine for 4 h) was “failed to grow”.
